Results from US7645740B2, “Peptide sequence found in Laminin 5 for treating skin impairments” (Laboratoires d'Anjou Centre National de la Recherche …, priority 2004, dated 2010).

How the values were obtained:
[1] = tested on: normal human keratinocytes; assay: Cell adhesion test to immobilized peptides, normal human keratinocytes; type: cell-based
Method: (§1) Dose-dependent cell adhesion of normal human keratinocytes to various peptides 1, 2 and 3. The peptides were immobilized in 96-well plates at the concentrations given on the abscissa. 10^5 cells were deposited in each well and plates were incubated at 37° C. for 1 hour. After washing, attached cells were fixed and cell adhesion was measured as described in the methodology section.
(§2) Peptides 1, 2 and 3 were used for the cell adhesion experiments. A range of 7 decreasing concentrations (100 micrograms/ml, 50 micrograms/ml, 25 micrograms/ml, 12.5 micrograms/ml, 6.25 micrograms/ml, 3.125 micrograms/ml and 1.562 micrograms/ml) was made up by successive dilution in PBS (Phosphate Buffer Saline, KH2PO4 1.54 mM; Na2HPO4 1.42 mM; NaCl-131 mM) using a starting solution at a concentration of 1 mg/ml. These solutions were immediately distributed onto a 96-well culture plate (Greinher, Dutscher, Brumath, France) at a rate of 100 μl per well. Plates were then placed at +4° C. for 16 to 18 hours. The solutions were then removed by turning the plates and each well was saturated with a 1% PBS-BSA solution (bovine serum albumin). Three additional wells without the substrate underwent the same treatment and were used as blanks.
(§3) Epithelial cells were detached from the culture dishes using a trypsin/EDAT solution (0.05-0.02%) then suspended in DMEM medium without additives for the cell lines and in KBM-2 without additive for human keratinocytes. The number of seeded cells per well is given in the graphs (50,000 to 100,000 cells per well).
(§4) After cell seeding, the multi-well plates were placed in an incubator at 37° C. under 5% CO2. After incubation for 30 to 60 minutes, cells were observed under a phase contrast microscope in order to verify that the test was conducted correctly. The adhesion medium was then removed and each well was washed in a sterile PBS solution to remove non-adhering cells. The remaining cells, attached to the substrate, were then fixed using a solution of 1% glutaraldehyde in PBS for 15 minutes. The glutaraldehyde solution as removed and the cells were stained with a crystal violet solution diluted to 1% in distilled water for 30 minutes.
(§5) After rinsing in water several times, cells were permeabilized by means of a 0.02% triton solution for 15 minutes in order to solubilize the crystal violet. Absorbances were read at 570 nm using an ELISA plate reader (MR500, Dynatech, Guernsey, Channel Islands). Each experimental point was carried out in triplicate. The blank value represented the mean absorbance of 3 control wells (BSA). This was subtracted from each of the optical density values for the experimental points. We then calculated the mean for the three absorbance values for each of the triplicate samples.
(§6) The results are presented in the form of a graph with the absorbance values on the ordinate and the various substrate concentrations on the abscissa. Attached cells were photographed by phase contrast microscopy.
Freshly isolated normal human keratinocytes were used in a second experiment. As the basal keratinocytes of the epidermis are in direct contact with LN-5 in the skin, it was necessary to test their adhesion capacity to the peptide in question. Human keratinocytes were obtained from a foreskin biopsy (surgery waste, Pavillon T-Bis, Eduard Herriot Hospital). […]

[2] = tested on: NHKs; assay: Cell adhesion of NHKs to peptide co-immobilized with collagen IV; type: cell-based, human; settings: collagen IV fixed quantity 0.06 mg, 50,000 cells per well, percentage of COL4 alone
Method: Peptides 1, 2 and 3 (variable quantities indicated) and collagen IV (fixed quantity 0.06 mg) were co-immobilized in 96-well plates. 5×104 NHKs were deposited in each well and plates were incubated at 37° C. for 1 hour. After washing, attached cells were fixed and cell adhesion was measured as described in the methodology section. Cell adhesion in the presence of the peptide is given as a percentage of cell adhesion obtained with collagen IV alone. Cells were observed by phase contrast microscopy then photographed. Bar=50 μm.
A decreasing range of LN5 (prepared in the laboratory) and COL4 (BD Biosciences, Le Pont de Claix, France) quantities was made up by successive dilution in PBS. These solutions were immediately distributed into a 96-well culture plate (Costar) at a rate of 100 μl per well. The experiment was conducted in exactly the same way as the experiment described in example 2. The results are given in the form of a graph with the absorbance values representing adhesion on the ordinate and the various substrate concentrations on the abscissa. […]
In order to analyse the effect of the peptide on cell adhesion to DEJ proteins, peptide TALRIRATYGEY (SEQ ID NO.1) (peptide 1) was co-immobilized with LN5 (FIG. 14) and COL4 (FIG. 15). The fixed quantity of matrix protein (LN5 and COL4) and the variable quantity of peptide are given on the graph (FIGS. 14 and 15). […]

[3] = tested on: A431 cells (skin epitheloids); assay: Cell adhesion test to immobilized peptides, A431; type: cell-based
Method: as §1, with “cell line A431” for “normal human keratinocytes”, “8×10^4” for “10^5”
as §2, §3, §4, §5, §6
The following cells from epithelial cell lines were used initially (commonly used in preliminary studies on cell adhesion): • line HT1080 cells (human fibrosarcoma), American Type Culture Collection CCL-121. • line HB100 cells (human mammary epithelium), American Type Culture Collection HTB-124. • line A431 cells (skin epitheliods), American Type Culture Collection CRL-1555.

## TALRIRATYGEY (Human laminin 5) [Peptide 1]
[1]; 0 to 10 micrograms immobilized peptide, 10^5 cells per well, 1 hour 37° C., absorbance 570 nm
  cell adhesion to immobilized peptide: effect also occurred
[1]; FIG. 5
  immobilized peptide quantity at which adhesion occurred: 0.15 micrograms
  immobilized peptide quantity at which maximum adhesion was achieved: 0.62 micrograms
[2]
  effect on adhesion of keratinocytes to COL4 (co-immobilized): no significant effect
[3]; A431
  immobilized peptide quantity at which adhesion occurred: 0.62 micrograms
  immobilized peptide quantity at which maximum adhesion was achieved: 1.2 micrograms
[3]; A431, 0 to 10 micrograms immobilized peptide, 8×10^4 cells per well, 1 hour 37° C., absorbance 570 nm
  cell adhesion to immobilized peptide: led to cell adhesion
